Experiments:
S. aureus RN450 = assay: In Vitro Anti-Bacterial Activity Assay (MIC), gram positive; type: cell-based; settings: Staphylococcus aureus, RN450, 18 h, MIC class, Table 3; read-out: Antibiotic Activity Gram +
E. coli mL308 225 = assay: In Vitro Anti-Bacterial Activity Assay (MIC), gram negative; type: cell-based; settings: Escherichia coli, ML308225, 18 h, MIC class, Table 3; read-out: Antibiotic Activity Gram −

Compound | MIC (S. aureus RN450) [µg/mL] | MIC (E. coli mL308 225) [µg/mL]
CO/N=C/c1cc(-c2ccc(O)c3c2C[C@H]2C[C@H]4[C@H](N(C)C)C(O)=C(C(N)=O)C(=O)[C@@]4(O)C(O)=C2C3=O)ccc1OC [HV] | < 4 | > 4
COc1ccc(-c2ccc(O)c3c2C[C@H]2C[C@H]4[C@H](N(C)C)C(O)=C(C(N)=O)C(=O)[C@@]4(O)C(O)=C2C3=O)cc1C=O [HW] | < 4 | < 4
CN(C)[C@@H]1C(O)=C(C(N)=O)C(=O)[C@@]2(O)C(O)=C3C(=O)c4c(ccc(NC(=O)CCCC(=O)O)c4O)C[C@H]3C[C@@H]12 [HX] | > 4 | > 4
CCc1cc(N(C)C)c2c(c1O)C(=O)C1=C(O)[C@]3(O)C(=O)C(C(N)=O)=C(O)C(N(C)C)[C@@H]3C[C@@H]1C2 (stereo partly shown) [IA] | < 4 | > 4
COC(=O)CCC(=O)Nc1ccc2c(c1O)C(=O)C1=C(O)[C@]3(O)C(=O)C(C(N)=O)=C(O)[C@@H](N(C)C)[C@@H]3C[C@@H]1C2 [IB] | > 4 | > 4
CO/N=C(/C)c1cc(C(C)(C)C)c(O)c2c1C[C@H]1C[C@H]3[C@H](N(C)C)C(O)=C(C(N)=O)C(=O)[C@@]3(O)C(O)=C1C2=O [IC] | < 4 | > 4
CN(C)c1ccc(-c2cc(N)c(O)c3c2C[C@H]2C[C@H]4[C@@H](N(C)C)C(O)=C(C(N)=O)C(=O)[C@@]4(O)C(O)=C2C3=O)cc1 [ID] | < 4 | > 4
Cc1noc(C)c1S(=O)(=O)NCc1ccc(O)c2c1C[C@H]1C[C@H]3[C@H](N(C)C)C(O)=C(C(N)=O)C(=O)[C@@]3(O)C(O)=C1C2=O [IG] | < 4 | > 4
CN(C)[C@@H]1C(O)=C(C(N)=O)C(=O)[C@@]2(O)C(O)=C3C(=O)c4c(ccc(NC(=O)c5ccno5)c4O)C[C@H]3C[C@@H]12 [IJ] | < 4 | > 4
COC(=O)c1cc(NC(=O)c2ccno2)cc(-c2ccc(O)c3c2C[C@H]2C[C@H]4[C@H](N(C)C)C(O)=C(C(N)=O)C(=O)[C@@]4(O)C(O)=C2C3=O)c1 [IK] | < 4 | > 4
CN(C)[C@@H]1C(O)=C(C(N)=O)C(=O)[C@@]2(O)C(O)=C3C(=O)c4c(ccc(NC(=O)N5CCOCC5)c4O)C[C@H]3C[C@@H]12 [IL] | > 4 | > 4
CN(C)[C@@H]1C(O)=C(C(N)=O)C(=O)[C@@]2(O)C(O)=C3C(=O)c4c(O)ccc(NC(=O)c5ccno5)c4C[C@H]3C[C@@H]12 [IM] | < 4 | > 4
CN(C)[C@@H]1C(O)=C(C(N)=O)C(=O)[C@@]2(O)C(O)=C3C(=O)c4c(O)ccc(-c5ccc(NC(=O)c6ccno6)cc5)c4C[C@H]3C[C@@H]12 [IN] | < 4 | > 4
Cc1noc(C)c1S(=O)(=O)Nc1ccc2c(c1O)C(=O)C1=C(O)[C@]3(O)C(=O)C(C(N)=O)=C(O)[C@@H](N(C)C)[C@@H]3C[C@@H]1C2 [IP] | < 4 | > 4
COc1ccc(-c2ccc(O)c3c2C[C@H]2C[C@H]4[C@H](N(C)C)C(O)=C(C(N)=O)C(=O)[C@@]4(O)C(O)=C2C3=O)cc1CN(C)C [IT] | < 4 | < 4
CCc1cc(C(C)=O)c(O)c2c1C[C@H]1C[C@H]3[C@H](N(C)C)C(O)=C(C(N)=O)C(=O)[C@@]3(O)C(O)=C1C2=O [IY] | < 4 | > 4
CCc1cc(CNCC(C)C)c(O)c2c1C[C@H]1C[C@H]3[C@H](N(C)C)C(O)=C(C(N)=O)C(=O)[C@@]3(O)C(O)=C1C2=O [IZ] | < 4 | < 4
COc1ccc(CNC2CCCCC2)cc1-c1ccc(O)c2c1C[C@H]1C[C@H]3[C@H](N(C)C)C(O)=C(C(N)=O)C(=O)[C@@]3(O)C(O)=C1C2=O [I] | < 4 | < 4
C[C@H]1c2ccc(-c3cccc(CN4CCN(C)CC4)c3)c(O)c2C(=O)C2=C(O)[C@]3(O)C(=O)C(C(N)=O)=C(O)[C@@H](N(C)C)[C@@H]3[C@@H](O)[C@@H]21 [JA] | > 4 | > 4
C[C@H]1c2ccc(NC3CCN(C)CC3)c(O)c2C(=O)C2=C(O)[C@]3(O)C(=O)C(C(N)=O)=C(O)[C@@H](N(C)C)[C@@H]3[C@@H](O)[C@@H]21 [JF] | < 4 | < 4
C[C@H]1c2ccc(CNCC(C)(C)C)c(O)c2C(=O)C2=C(O)[C@]3(O)C(=O)C(C(N)=O)=C(O)[C@@H](N(C)C)[C@@H]3[C@@H](O)[C@@H]21 [JG] | < 4 | < 4
CC(C)CNCc1ccc2c(c1O)C(=O)C1=C(O)[C@]3(O)C(=O)C(C(N)=O)=C(O)[C@@H](N(C)C)[C@@H]3[C@@H](O)[C@@H]1[C@H]2C [JH] | < 4 | < 4
C[C@H]1c2ccc(CNCCc3ccccc3)c(O)c2C(=O)C2=C(O)[C@]3(O)C(=O)C(C(N)=O)=C(O)[C@@H](N(C)C)[C@@H]3[C@@H](O)[C@@H]21 [JI] | < 4 | < 4
C[C@H]1c2ccc(NC3CCN(Cc4ccccc4)CC3)c(O)c2C(=O)C2=C(O)[C@]3(O)C(=O)C(C(N)=O)=C(O)[C@@H](N(C)C)[C@@H]3[C@@H](O)[C@@H]21 [JK] | < 4 | < 4

Compound | MIC (S. aureus RN450) [µg/mL] | MIC (E. coli mL308 225) [µg/mL]
CCc1cc(CNC(=O)CN(C)C)c(O)c2c1C[C@H]1C[C@H]3[C@@H](N(C)C)C(O)=C(C(N)=O)C(=O)[C@@]3(O)C(O)=C1C2=O [JL] | < 4 | > 4
COc1ccc(-c2ccc(O)c3c2C[C@H]2C[C@H]4[C@H](N(C)C)C(O)=C(C(N)=O)C(=O)[C@@]4(O)C(O)=C2C3=O)c(OC)c1OC [JM] | < 4 | > 4
CN(C)[C@@H]1C(O)=C(C(N)=O)C(=O)[C@@]2(O)C(O)=C3C(=O)c4c(O)ccc(NC5CCN(Cc6ccccc6)CC5)c4C[C@H]3C[C@@H]12 [JN] | < 4 | < 4
C[C@H]1c2ccc(CNC(=O)c3ccccc3)c(O)c2C(=O)C2=C(O)[C@]3(O)C(=O)C(C(N)=O)=C(O)[C@@H](N(C)C)[C@@H]3[C@@H](O)[C@@H]21 [JO] | < 4 | > 4
CCCCN(c1ccc2c(c1O)C(=O)C1=C(O)[C@]3(O)C(=O)C(C(N)=O)=C(O)[C@@H](N(C)C)[C@@H]3C[C@@H]1C2)C1CCN(C)CC1 [JR] | > 4 | > 4
CN(C)C1C(O)=C(C(N)=O)C(=O)[C@@]2(O)C(O)=C3C(=O)c4c(O)ccc(NS(C)(=O)=O)c4C[C@H]3C[C@@H]12 (stereo partly shown) [JS] | < 4 | > 4
CN(C)[C@@H]1C(O)=C(C(N)=O)C(=O)[C@@]2(O)C(O)=C3C(=O)c4c(ccc(N)c4O)C[C@H]3C[C@@H]12 [JU] | < 4 | < 4
C[C@H]1c2ccc(N3CCCCC3)c(O)c2C(=O)C2=C(O)[C@]3(O)C(=O)C(C(N)=O)=C(O)[C@@H](N(C)C)[C@@H]3[C@@H](O)[C@@H]21 [JV] | < 4 | > 4
CC(=O)c1cc(I)c(O)c2c1C[C@H]1C[C@H]3[C@H](N(C)C)C(O)=C(C(N)=O)C(=O)[C@@]3(O)C(O)=C1C2=O [JW] | > 4 | > 4
CN(C)c1ccc2c(c1O)C(=O)C1=C(O)[C@]3(O)C(=O)C(C(N)=O)=C(O)[C@@H](N(C)C)[C@@H]3C[C@@H]1C2 [JX] | < 4 | > 4
COc1ccc(-c2ccc(O)c3c2C[C@H]2C[C@H]4[C@H](N(C)C)C(O)=C(C(N)=O)C(=O)[C@@]4(O)C(O)=C2C3=O)cc1CN1CCN(C)CC1 [JY] | < 4 | > 4
CN(C)[C@@H]1C(O)=C(C(N)=O)C(=O)[C@@]2(O)C(O)=C3C(=O)c4c(O)ccc(-c5ccc(CN6CCCC6)cc5)c4C[C@H]3C[C@@H]12 [JZ] | < 4 | < 4
CCN(CC)Cc1ccc(OC)c(-c2ccc(O)c3c2C[C@H]2C[C@H]4[C@@H](N(C)C)C(O)=C(C(N)=O)C(=O)[C@@]4(O)C(O)=C2C3=O)c1 [J] | < 4 | < 4
COc1ccc(-c2ccc(O)c3c2C[C@H]2C[C@H]4[C@H](N(C)C)C(O)=C(C(N)=O)C(=O)[C@@]4(O)C(O)=C2C3=O)cc1CN1CCN(CCO)CC1 [KA] | < 4 | > 4
COc1ccc(NC(=O)Nc2cc(N(C)C)c3c(c2O)C(=O)C2=C(O)[C@]4(O)C(=O)C(C(N)=O)=C(O)[C@@H](N(C)C)[C@@H]4C[C@@H]2C3)cc1 [KB] | < 4 | > 4
CN(C)[C@@H]1C(O)=C(C(N)=O)C(=O)[C@@]2(O)C(O)=C3C(=O)c4c(O)ccc(CN(CC5CC5)CC5CC5)c4C[C@H]3C[C@@H]12 [KC] | < 4 | < 4
COC(CN(Cc1ccc(O)c2c1C[C@H]1C[C@H]3[C@@H](N(C)C)C(O)=C(C(N)=O)C(=O)[C@@]3(O)C(O)=C1C2=O)CC(OC)OC)OC [KD] | < 4 | > 4
CCC(C)CNCc1ccc(O)c2c1C[C@H]1C[C@H]3[C@H](N(C)C)C(O)=C(C(N)=O)C(=O)[C@@]3(O)C(O)=C1C2=O (stereo partly shown) [KE] | < 4 | < 4
CN(C)[C@@H]1C(O)=C(C(N)=O)C(=O)[C@@]2(O)C(O)=C3C(=O)c4c(O)ccc(CNCc5cccn5C)c4C[C@H]3C[C@@H]12 [KG] | < 4 | < 4
CN(C)[C@@H]1C(O)=C(C(N)=O)C(=O)[C@@]2(O)C(O)=C3C(=O)c4c(O)ccc(CNCc5ccc[nH]5)c4C[C@H]3C[C@@H]12 [KH] | < 4 | < 4
CCN(CC)Cc1ccc(O)c2c1C[C@H]1C[C@H]3[C@@H](N(C)C)C(O)=C(C(N)=O)C(=O)[C@@]3(O)C(O)=C1C2=O [KI] | < 4 | < 4
CN(C)[C@@H]1C(O)=C(C(N)=O)C(=O)[C@@]2(O)C(O)=C3C(=O)c4c(O)ccc(CN5CCCCC5)c4C[C@H]3C[C@@H]12 [KJ] | < 4 | < 4
CC(C)NCc1ccc(O)c2c1C[C@H]1C[C@H]3C(N(C)C)C(O)=C(C(N)=O)C(=O)[C@@]3(O)C(O)=C1C2=O (stereo partly shown) [KK] | < 4 | < 4

Source: patent publication US20150141381A1, “TETRACYCLINE COMPOUNDS HAVING TARGET THERAPEUTIC ACTIVITIES” (Paratek Pharmaceuticals, Inc., priority 2001, published 2015)
